Data: PubChem BioAssay (NCI)
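Values below derive from 48-hour exposures of cells grown in 96-well plates, with endpoints linearly interpolated between the two concentrations bracketing the appropriate inhibition level. The concentration for full growth arrest is given as TGI.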

The compounds below were run on SK-MEL-28 melanoma (assay: NCI-60 cell line screen, 48 h).
`O=c1ccc2ccc(S)cc2o1` was tested, and the TGI was over 100 µM.
In the case of `CN(O)C(=O)/C=C/c1ccc(OCc2cccc(Cl)c2)cc1`, the TGI is reported as over 100 µM.
`Cc1nc(N)c(N2CCN(C#N)CC2)c(=O)[nH]1` gave a TGI of over 100 µM.

Each compound was assayed on SK-OV-3 ovarian (assay: NCI-60 cell line screen, 48 h).
For `[N-]=[N+]=CC(=O)C1CCCN1C(=O)c1ccccc1` (stereo not drawn), the TGI was over 10 µM.
Work on `CC(=O)Nc1nc(Cl)cc(NCC2(CO)CCC2)n1` yielded a TGI of over 100 µM.
Compound `Cc1ccc2cccc(-c3cccc4ccccc34)c2n1` has a TGI of 75.2 µM.
`O=c1ccc2ccc(S)cc2o1` gave a TGI of over 100 µM.
Compound `CN(O)C(=O)/C=C/c1ccc(OCc2cccc(Cl)c2)cc1` has a TGI of over 100 µM.

These compounds were tested on HCT-116 colon (assay: NCI-60 cell line screen, 48 h).
For `[N-]=[N+]=CC(=O)C1CCCN1C(=O)c1ccccc1` (stereo not drawn), the TGI was over 10 µM.
Compound `CC(=O)Nc1nc(Cl)cc(NCC2(CO)CCC2)n1` has a TGI of over 100 µM.
`O=C(COc1ccc(OCC(=O)N/N=C/c2ccc(-c3ccc(Cl)cc3Cl)o2)c(Cl)c1)N/N=C/c1ccc(-c2ccc(Cl)cc2Cl)o1` gave a TGI of over 100 µM.
`Cc1ccc2cccc(-c3cccc4ccccc34)c2n1` gave a TGI of 95 µM.
For `O=c1ccc2ccc(S)cc2o1`, the TGI was over 100 µM.
`CN(O)C(=O)/C=C/c1ccc(OCc2cccc(Cl)c2)cc1` gave a TGI of 32.9 µM.
Work on `Cc1nc(N)c(N2CCN(C#N)CC2)c(=O)[nH]1` yielded a TGI of over 100 µM.

The compounds below were run on MOLT-4 leukemia (assay: NCI-60 cell line screen, 48 h).
For `[N-]=[N+]=CC(=O)C1CCCN1C(=O)c1ccccc1` (stereo not drawn), the TGI was over 10 µM.
`CC(=O)Nc1nc(Cl)cc(NCC2(CO)CCC2)n1` gave a TGI of over 100 µM.
In the case of `O=C(COc1ccc(OCC(=O)N/N=C/c2ccc(-c3ccc(Cl)cc3Cl)o2)c(Cl)c1)N/N=C/c1ccc(-c2ccc(Cl)cc2Cl)o1`, the TGI is reported as 5.5 µM.
`Cc1ccc2cccc(-c3cccc4ccccc34)c2n1` gave a TGI of 40.6 µM.
For `O=c1ccc2ccc(S)cc2o1`, the TGI was over 100 µM.
In the case of `CN(O)C(=O)/C=C/c1ccc(OCc2cccc(Cl)c2)cc1`, the TGI is reported as 39.6 µM.
For `Cc1nc(N)c(N2CCN(C#N)CC2)c(=O)[nH]1`, the TGI was over 100 µM.

Each compound was assayed on UACC-62 melanoma (assay: NCI-60 cell line screen, 48 h).
For `[N-]=[N+]=CC(=O)C1CCCN1C(=O)c1ccccc1` (stereo not drawn), the TGI was over 10 µM.
`CC(=O)Nc1nc(Cl)cc(NCC2(CO)CCC2)n1` showed a TGI of over 100 µM.
`O=C(COc1ccc(OCC(=O)N/N=C/c2ccc(-c3ccc(Cl)cc3Cl)o2)c(Cl)c1)N/N=C/c1ccc(-c2ccc(Cl)cc2Cl)o1` was tested, and the TGI was over 100 µM.
`Cc1ccc2cccc(-c3cccc4ccccc34)c2n1` was tested, and the TGI was 61.9 µM.
`O=c1ccc2ccc(S)cc2o1` was tested, and the TGI was over 100 µM.
`CN(O)C(=O)/C=C/c1ccc(OCc2cccc(Cl)c2)cc1` showed a TGI of 31.3 µM.

Each compound was assayed on SW-620 colon (assay: NCI-60 cell line screen, 48 h).
In the case of `[N-]=[N+]=CC(=O)C1CCCN1C(=O)c1ccccc1` (stereo not drawn), the TGI is reported as over 10 µM.
Compound `CC(=O)Nc1nc(Cl)cc(NCC2(CO)CCC2)n1` has a TGI of over 100 µM.
Compound `O=C(COc1ccc(OCC(=O)N/N=C/c2ccc(-c3ccc(Cl)cc3Cl)o2)c(Cl)c1)N/N=C/c1ccc(-c2ccc(Cl)cc2Cl)o1` has a TGI of over 100 µM.
`Cc1ccc2cccc(-c3cccc4ccccc34)c2n1` was tested, and the TGI was over 100 µM.
In the case of `O=c1ccc2ccc(S)cc2o1`, the TGI is reported as over 100 µM.
Work on `CN(O)C(=O)/C=C/c1ccc(OCc2cccc(Cl)c2)cc1` yielded a TGI of over 100 µM.
`Cc1nc(N)c(N2CCN(C#N)CC2)c(=O)[nH]1` showed a TGI of over 100 µM.

These compounds were tested on OVCAR-3 ovarian (assay: NCI-60 cell line screen, 48 h).
For `[N-]=[N+]=CC(=O)C1CCCN1C(=O)c1ccccc1` (stereo not drawn), the TGI was over 10 µM.
In the case of `CC(=O)Nc1nc(Cl)cc(NCC2(CO)CCC2)n1`, the TGI is reported as over 100 µM.
`O=C(COc1ccc(OCC(=O)N/N=C/c2ccc(-c3ccc(Cl)cc3Cl)o2)c(Cl)c1)N/N=C/c1ccc(-c2ccc(Cl)cc2Cl)o1` gave a TGI of over 100 µM.
In the case of `Cc1ccc2cccc(-c3cccc4ccccc34)c2n1`, the TGI is reported as over 100 µM.
Work on `O=c1ccc2ccc(S)cc2o1` yielded a TGI of over 100 µM.
`CN(O)C(=O)/C=C/c1ccc(OCc2cccc(Cl)c2)cc1` gave a TGI of over 100 µM.
Work on `Cc1nc(N)c(N2CCN(C#N)CC2)c(=O)[nH]1` yielded a TGI of over 100 µM.

These compounds were tested on SF-539 CNS (assay: NCI-60 cell line screen, 48 h).
Work on `[N-]=[N+]=CC(=O)C1CCCN1C(=O)c1ccccc1` (stereo not drawn) yielded a TGI of over 10 µM.
With `Cc1ccc2cccc(-c3cccc4ccccc34)c2n1` the TGI was over 100 µM.
`O=c1ccc2ccc(S)cc2o1` gave a TGI of over 100 µM.
In the case of `CN(O)C(=O)/C=C/c1ccc(OCc2cccc(Cl)c2)cc1`, the TGI is reported as over 100 µM.
Work on `Cc1nc(N)c(N2CCN(C#N)CC2)c(=O)[nH]1` yielded a TGI of over 100 µM.

Each compound was assayed on ACHN renal (assay: NCI-60 cell line screen, 48 h).
Work on `[N-]=[N+]=CC(=O)C1CCCN1C(=O)c1ccccc1` (stereo not drawn) yielded a TGI of over 10 µM.
Work on `CC(=O)Nc1nc(Cl)cc(NCC2(CO)CCC2)n1` yielded a TGI of over 100 µM.
For `O=C(COc1ccc(OCC(=O)N/N=C/c2ccc(-c3ccc(Cl)cc3Cl)o2)c(Cl)c1)N/N=C/c1ccc(-c2ccc(Cl)cc2Cl)o1`, the TGI was over 100 µM.
In the case of `Cc1ccc2cccc(-c3cccc4ccccc34)c2n1`, the TGI is reported as over 100 µM.
Work on `O=c1ccc2ccc(S)cc2o1` yielded a TGI of over 100 µM.
For `CN(O)C(=O)/C=C/c1ccc(OCc2cccc(Cl)c2)cc1`, the TGI was 29.9 µM.
For `Cc1nc(N)c(N2CCN(C#N)CC2)c(=O)[nH]1`, the TGI was over 100 µM.

These compounds were tested on HCT-15 colon (assay: NCI-60 cell line screen, 48 h).
Compound `[N-]=[N+]=CC(=O)C1CCCN1C(=O)c1ccccc1` (stereo not drawn) has a TGI of over 10 µM.
In the case of `CC(=O)Nc1nc(Cl)cc(NCC2(CO)CCC2)n1`, the TGI is reported as over 100 µM.
`O=C(COc1ccc(OCC(=O)N/N=C/c2ccc(-c3ccc(Cl)cc3Cl)o2)c(Cl)c1)N/N=C/c1ccc(-c2ccc(Cl)cc2Cl)o1` showed a TGI of over 100 µM.
In the case of `Cc1ccc2cccc(-c3cccc4ccccc34)c2n1`, the TGI is reported as 91.1 µM.
Compound `O=c1ccc2ccc(S)cc2o1` has a TGI of over 100 µM.
With `CN(O)C(=O)/C=C/c1ccc(OCc2cccc(Cl)c2)cc1` the TGI was 29.1 µM.
For `Cc1nc(N)c(N2CCN(C#N)CC2)c(=O)[nH]1`, the TGI was over 100 µM.

The compounds below were run on EKVX NSCLC (assay: NCI-60 cell line screen, 48 h).
Work on `[N-]=[N+]=CC(=O)C1CCCN1C(=O)c1ccccc1` (stereo not drawn) yielded a TGI of over 10 µM.
Compound `CC(=O)Nc1nc(Cl)cc(NCC2(CO)CCC2)n1` has a TGI of over 100 µM.
With `O=C(COc1ccc(OCC(=O)N/N=C/c2ccc(-c3ccc(Cl)cc3Cl)o2)c(Cl)c1)N/N=C/c1ccc(-c2ccc(Cl)cc2Cl)o1` the TGI was 89.5 µM.
With `Cc1ccc2cccc(-c3cccc4ccccc34)c2n1` the TGI was 84.9 µM.
With `O=c1ccc2ccc(S)cc2o1` the TGI was over 100 µM.
Work on `CN(O)C(=O)/C=C/c1ccc(OCc2cccc(Cl)c2)cc1` yielded a TGI of over 100 µM.
`Cc1nc(N)c(N2CCN(C#N)CC2)c(=O)[nH]1` showed a TGI of over 100 µM.

What follows are compounds tested on HL-60(TB) leukemia (assay: NCI-60 cell line screen, 48 h).
With `[N-]=[N+]=CC(=O)C1CCCN1C(=O)c1ccccc1` (stereo not drawn) the TGI was over 10 µM.
`CC(=O)Nc1nc(Cl)cc(NCC2(CO)CCC2)n1` gave a TGI of over 100 µM.
In the case of `O=C(COc1ccc(OCC(=O)N/N=C/c2ccc(-c3ccc(Cl)cc3Cl)o2)c(Cl)c1)N/N=C/c1ccc(-c2ccc(Cl)cc2Cl)o1`, the TGI is reported as 70.6 µM.
For `Cc1ccc2cccc(-c3cccc4ccccc34)c2n1`, the TGI was 16.3 µM.
With `O=c1ccc2ccc(S)cc2o1` the TGI was over 100 µM.
For `CN(O)C(=O)/C=C/c1ccc(OCc2cccc(Cl)c2)cc1`, the TGI was 52 µM.

The compounds below were run on LOX IMVI melanoma (assay: NCI-60 cell line screen, 48 h).
For `[N-]=[N+]=CC(=O)C1CCCN1C(=O)c1ccccc1` (stereo not drawn), the TGI was over 10 µM.
In the case of `CC(=O)Nc1nc(Cl)cc(NCC2(CO)CCC2)n1`, the TGI is reported as over 100 µM.
For `O=C(COc1ccc(OCC(=O)N/N=C/c2ccc(-c3ccc(Cl)cc3Cl)o2)c(Cl)c1)N/N=C/c1ccc(-c2ccc(Cl)cc2Cl)o1`, the TGI was over 100 µM.
With `Cc1ccc2cccc(-c3cccc4ccccc34)c2n1` the TGI was 31.3 µM.
With `O=c1ccc2ccc(S)cc2o1` the TGI was over 100 µM.
`CN(O)C(=O)/C=C/c1ccc(OCc2cccc(Cl)c2)cc1` gave a TGI of 30.5 µM.
In the case of `Cc1nc(N)c(N2CCN(C#N)CC2)c(=O)[nH]1`, the TGI is reported as over 100 µM.

The compounds below were run on SF-295 CNS (assay: NCI-60 cell line screen, 48 h).
`[N-]=[N+]=CC(=O)C1CCCN1C(=O)c1ccccc1` (stereo not drawn) was tested, and the TGI was over 10 µM.
Compound `CC(=O)Nc1nc(Cl)cc(NCC2(CO)CCC2)n1` has a TGI of over 100 µM.
`O=C(COc1ccc(OCC(=O)N/N=C/c2ccc(-c3ccc(Cl)cc3Cl)o2)c(Cl)c1)N/N=C/c1ccc(-c2ccc(Cl)cc2Cl)o1` gave a TGI of over 100 µM.
Compound `Cc1ccc2cccc(-c3cccc4ccccc34)c2n1` has a TGI of 69.8 µM.
For `O=c1ccc2ccc(S)cc2o1`, the TGI was over 100 µM.
Compound `CN(O)C(=O)/C=C/c1ccc(OCc2cccc(Cl)c2)cc1` has a TGI of over 100 µM.
In the case of `Cc1nc(N)c(N2CCN(C#N)CC2)c(=O)[nH]1`, the TGI is reported as over 100 µM.

Each compound was assayed on SNB-75 CNS (assay: NCI-60 cell line screen, 48 h).
`[N-]=[N+]=CC(=O)C1CCCN1C(=O)c1ccccc1` (stereo not drawn) was tested, and the TGI was 8.26 µM.
Work on `CC(=O)Nc1nc(Cl)cc(NCC2(CO)CCC2)n1` yielded a TGI of over 100 µM.
`Cc1ccc2cccc(-c3cccc4ccccc34)c2n1` was tested, and the TGI was 48.2 µM.
`O=c1ccc2ccc(S)cc2o1` was tested, and the TGI was over 100 µM.
For `CN(O)C(=O)/C=C/c1ccc(OCc2cccc(Cl)c2)cc1`, the TGI was over 100 µM.
`Cc1nc(N)c(N2CCN(C#N)CC2)c(=O)[nH]1` gave a TGI of over 100 µM.

These compounds were tested on HOP-62 NSCLC (assay: NCI-60 cell line screen, 48 h).
With `[N-]=[N+]=CC(=O)C1CCCN1C(=O)c1ccccc1` (stereo not drawn) the TGI was over 10 µM.
In the case of `CC(=O)Nc1nc(Cl)cc(NCC2(CO)CCC2)n1`, the TGI is reported as over 100 µM.
`O=C(COc1ccc(OCC(=O)N/N=C/c2ccc(-c3ccc(Cl)cc3Cl)o2)c(Cl)c1)N/N=C/c1ccc(-c2ccc(Cl)cc2Cl)o1` was tested, and the TGI was over 100 µM.
`Cc1ccc2cccc(-c3cccc4ccccc34)c2n1` showed a TGI of 56.9 µM.
